Measurements from patent US20040171543A1, “Matrix metalloproteinase inhibitors and methods for identification of lead compounds” (priority 2002, published 2004).
Counter-ions that a name gives are not always drawn. Like-named read-outs stand apart in the source and are kept apart here. Marks after values point to notes of the source that are not given here.

How the values were obtained:
[1] = target: T1, MMP-13 catalytic domain (MMP-13CD) (Homo sapiens, UniProt P45452); assay: Fluorigenic peptide-1 substrate based assay, MMP-13CD, with/without AcNHOH; assay type: biochemical; conditions: IC50 with AcNHOH divided by IC50 without
T1 construct: The catalytic domain of the MMP-13 enzyme, namely matrix metalloproteinase-13 catalytic domain (“MMP-13CD”)
Description: The catalytic domain of the MMP-13 enzyme, namely matrix metalloproteinase-13 catalytic domain (“MMP-13CD”), rather than the corresponding full-length enzyme, MMP-13 was used in such assay.
50 mM HEPES buffer (pH 7.0)
2% DMSO (with or without inhibitor test compound)
1. Dispensed 2 μL inhibitor test sample (in 100% DMSO) into well.
2. Added 88 μL assay mixture and mixed well, avoiding bubbles.
3. Initiated reactions with 10 μL of 5 nM MMP-13CD; mixed well, avoiding bubbles.
4. Immediately measured the kinetics of the reactions at room temperature.
Alternatively, an endpoint read can also be used to determine reaction velocity provided the initial fluorescence of the solution, as recorded before addition of enzyme, is subtracted from the final fluorescence of the reaction mixture.

MMP-7 = target: T2, MMP-7 (Homo sapiens, UniProt P09237); assay: TPL (thiopeptolide) assay, MMP-7; assay type: biochemical; conditions: unit inferred, read-out: Activities measured by TPL assays, MMP-7
T2 sequence (P09237 95-267): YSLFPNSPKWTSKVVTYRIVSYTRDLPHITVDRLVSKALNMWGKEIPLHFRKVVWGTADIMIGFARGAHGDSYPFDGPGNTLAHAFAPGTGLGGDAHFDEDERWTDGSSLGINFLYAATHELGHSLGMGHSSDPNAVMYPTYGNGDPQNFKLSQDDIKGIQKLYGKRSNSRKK
From the text: (§1) The assays that can be used to evaluate the biological activity of various compounds for inhibiting MMPs are well-known and routinely used by those skilled in the art. They measure the amount by which a test compound reduces the hydrolysis of a thiopeptolide substrate caused by a matrix metalloproteinase enzyme. Such assays are described in detail by Ye et al., in Biochemistry, 1992;31(45): 11231-11235, which is incorporated herein by reference.
(§2) Thiopeptolide substrates show virtually no decomposition or hydrolysis in the absence of a matrix metalloproteinase enzyme. A typical thiopeptolide substrate commonly utilized for assays is Ac-Pro-Leu-Gly-thioester-Leu-Leu-Gly-OEt. A 100 μL assay mixture will contain 50 mM of 2-morpholinoethane sulfonic acid monohydrate (MES, pH 6.0) 10 mM CaCl2, 100 μM thiopeptolide substrate, and 1 mM 5,5′-dithio-bis-(2-nitro-benzoic acid) (DTNB). The thiopeptolide substrate concentration is varied from 10 to 800 μM to obtain Km and Kcat values. The change in absorbance at […] is monitored on a Thermo Max microplate reader (Molecular Devices, Menlo Park, Calif.) at room temperature (22° C.). The calculation of the amount of hydrolysis of the thiopeptolide substrate is based on E412=13600 m^−1 cm^−1 for the DTNB-derived product 3-carboxy-4-nitrothiophenoxide. […]

MMP-13 [2] = target: T3, MMP-13 (Homo sapiens, UniProt P45452); assay: TPL (thiopeptolide) assay, MMP-13 (without and with AH); assay type: biochemical
Description: Thiopeptolide substrates show virtually no decomposition or hydrolysis in the absence of a matrix metalloproteinase enzyme. A typical thiopeptolide substrate commonly utilized for assays is Ac-Pro-Leu-Gly-thioester-Leu-Leu-Gly-OEt. A 100 μL assay mixture will contain 50 mM of 2-morpholinoethane sulfonic acid monohydrate (MES, pH 6.0) 10 mM CaCl2, 100 μM thiopeptolide substrate, and 1 mM 5,5′-dithio-bis-(2-nitro-benzoic acid) (DTNB). […] The change in absorbance at 405 mm is monitored on a Thermo Max microplate reader (Molecular Devices, Menlo Park, Calif.) at room temperature (22° C.). […] Assays are carried out with and without matrix metalloproteinase inhibitor compounds, and the amount of hydrolysis is compared for a determination of inhibitory activity of the test compounds.

MMP-9 [3] = target: T4, MMP-9 (Homo sapiens, UniProt P14780); assay: TPL (thiopeptolide) assay, MMP-9; assay type: biochemical
From the text: as §1
(§3) Thiopeptolide substrates show virtually no decomposition or hydrolysis in the absence of a matrix metalloproteinase enzyme. A typical thiopeptolide substrate commonly utilized for assays is Ac-Pro-Leu-Gly-thioester-Leu-Leu-Gly-OEt. A 100 μL assay mixture will contain 50 mM of 2-morpholinoethane sulfonic acid monohydrate (MES, pH 6.0) 10 mM CaCl2, 100 μM thiopeptolide substrate, and 1 mM 5,5′-dithio-bis-(2-nitro-benzoic acid) (DTNB). The thiopeptolide substrate concentration is varied from 10 to 800 μM to obtain Km and Kcat values. The change in absorbance at […] is monitored on a Thermo Max microplate reader (Molecular Devices, Menlo Park, Calif.) at room temperature (22° C.). The calculation of the amount of hydrolysis of the thiopeptolide substrate is based on E412=13600 m^−1 cm^−1 for the DTNB-derived product 3-carboxy-4-nitrothiophenoxide. Assays are carried out with and without matrix metalloproteinase inhibitor compounds, and the amount of hydrolysis is compared for a determination of inhibitory activity of the test compounds.

MMP-1 [4] = target: T5, MMP-1 (Homo sapiens, UniProt P03956); assay: TPL (thiopeptolide) assay, MMP-1; assay type: biochemical
T5 sequence (P03956 100-469): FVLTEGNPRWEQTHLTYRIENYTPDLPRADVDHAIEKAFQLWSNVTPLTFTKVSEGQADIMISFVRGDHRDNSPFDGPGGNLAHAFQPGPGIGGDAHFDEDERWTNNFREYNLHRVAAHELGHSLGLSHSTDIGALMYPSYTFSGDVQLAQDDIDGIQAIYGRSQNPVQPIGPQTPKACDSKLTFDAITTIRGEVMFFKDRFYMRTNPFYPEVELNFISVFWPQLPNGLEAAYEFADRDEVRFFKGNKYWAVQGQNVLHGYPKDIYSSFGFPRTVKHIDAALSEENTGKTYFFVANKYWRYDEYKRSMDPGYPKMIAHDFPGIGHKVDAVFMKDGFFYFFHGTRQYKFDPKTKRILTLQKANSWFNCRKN
From the text: as §1, §3

MMP-2 [5] = target: T6, MMP-2 (Homo sapiens, UniProt P08253); assay: TPL (thiopeptolide) assay, MMP-2; assay type: biochemical
T6 sequence (P08253 110-660): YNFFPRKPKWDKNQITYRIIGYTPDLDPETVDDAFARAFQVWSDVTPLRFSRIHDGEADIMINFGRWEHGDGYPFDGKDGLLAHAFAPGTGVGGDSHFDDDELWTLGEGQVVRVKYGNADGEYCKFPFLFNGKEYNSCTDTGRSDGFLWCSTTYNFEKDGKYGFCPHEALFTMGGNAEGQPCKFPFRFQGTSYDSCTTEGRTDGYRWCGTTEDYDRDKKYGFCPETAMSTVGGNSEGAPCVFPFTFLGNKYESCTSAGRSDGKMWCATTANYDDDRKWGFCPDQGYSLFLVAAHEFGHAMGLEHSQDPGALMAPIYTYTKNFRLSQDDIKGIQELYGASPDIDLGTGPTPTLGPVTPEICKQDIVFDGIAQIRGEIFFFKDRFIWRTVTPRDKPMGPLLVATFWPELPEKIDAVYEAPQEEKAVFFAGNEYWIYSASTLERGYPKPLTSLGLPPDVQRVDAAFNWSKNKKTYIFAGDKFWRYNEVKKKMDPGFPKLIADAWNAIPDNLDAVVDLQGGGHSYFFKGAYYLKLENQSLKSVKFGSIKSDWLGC
From the text: as §1, §3

MMP-3 = MMP-3 (Homo sapiens, UniProt P08254); assay: TPL (thiopeptolide) assay, MMP-3; assay type: biochemical
From the text: as §1, §3

MMP-14 = MMP-14 (Homo sapiens, UniProt P50281); assay: TPL (thiopeptolide) assay, MMP-14; assay type: biochemical
From the text: as §1, §3

TACE = TACE (Homo sapiens, UniProt P78536); conditions: Chen et al.; cited from earlier work
MMP-9 [6] = target: T4, MMP-9; conditions: Chen et al.; cited from earlier work
MMP-13 [7] = target: T3, MMP-13; conditions: Chen et al.; cited from earlier work
MMP-1 [8] = target: T5, MMP-1; conditions: Chen et al.; cited from earlier work
MMP-8 = MMP-8 (Homo sapiens, UniProt P22894); assay: TPL (thiopeptolide) assay, MMP-8; assay type: biochemical
From the text: as §1, §2

MMP-12 = MMP-12 (Homo sapiens, UniProt P39900); assay: TPL (thiopeptolide) assay, MMP-12 (without and with AH); assay type: biochemical
From the text: as §1, §3
Although ligand size is not critical, a bulky ligand will block more binding sites of the MMP than a smaller ligand, and may thus prevent potential inhibitors that bind close to, but not at, the functional metal cation from being identified. Suitable ligands are therefore low molecular weight molecules, e.g. acetohydroxamic acid (CH3CONHOH) whose use is preferred.

MMP-2 [9] = target: T6, MMP-2; conditions: Curtin et al.; cited from earlier work
[10] = TPL assay, without AH, read-out: IC50 MMP-12
[11] = in presence of acetohydroxamic acid (+AH), read-out: IC50 MMP12 (+AH)
[12] = TPL assay, without AH, read-out: IC50 MMP-13

MMP-3, sequence (P08254 100-477): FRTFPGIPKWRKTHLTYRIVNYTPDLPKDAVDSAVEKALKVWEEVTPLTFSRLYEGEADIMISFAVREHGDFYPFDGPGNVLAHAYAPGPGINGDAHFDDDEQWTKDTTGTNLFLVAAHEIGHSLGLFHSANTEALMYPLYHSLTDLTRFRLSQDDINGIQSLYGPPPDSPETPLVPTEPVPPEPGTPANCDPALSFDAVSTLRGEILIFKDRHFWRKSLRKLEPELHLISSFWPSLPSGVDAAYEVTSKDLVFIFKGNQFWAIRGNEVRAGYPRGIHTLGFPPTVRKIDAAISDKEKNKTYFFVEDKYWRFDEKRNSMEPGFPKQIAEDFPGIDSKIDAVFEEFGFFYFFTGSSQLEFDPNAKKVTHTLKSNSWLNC
T4 sequence (P14780 94-707): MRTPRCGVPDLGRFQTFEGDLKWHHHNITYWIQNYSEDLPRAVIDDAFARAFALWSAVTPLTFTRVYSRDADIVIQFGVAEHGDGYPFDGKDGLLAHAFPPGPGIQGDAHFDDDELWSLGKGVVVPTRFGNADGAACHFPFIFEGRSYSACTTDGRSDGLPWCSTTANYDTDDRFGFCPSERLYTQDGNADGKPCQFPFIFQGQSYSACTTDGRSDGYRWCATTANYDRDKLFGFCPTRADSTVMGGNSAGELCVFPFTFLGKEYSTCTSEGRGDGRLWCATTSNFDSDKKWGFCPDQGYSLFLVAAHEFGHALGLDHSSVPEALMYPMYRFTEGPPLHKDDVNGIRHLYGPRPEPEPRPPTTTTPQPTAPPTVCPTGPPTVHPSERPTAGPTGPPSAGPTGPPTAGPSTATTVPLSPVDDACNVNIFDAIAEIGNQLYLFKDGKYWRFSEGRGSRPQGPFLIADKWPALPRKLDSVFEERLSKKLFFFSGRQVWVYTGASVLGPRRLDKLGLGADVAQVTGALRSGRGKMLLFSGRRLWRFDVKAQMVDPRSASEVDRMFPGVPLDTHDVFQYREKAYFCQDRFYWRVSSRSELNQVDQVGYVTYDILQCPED
MMP-12, sequence (P39900 106-470): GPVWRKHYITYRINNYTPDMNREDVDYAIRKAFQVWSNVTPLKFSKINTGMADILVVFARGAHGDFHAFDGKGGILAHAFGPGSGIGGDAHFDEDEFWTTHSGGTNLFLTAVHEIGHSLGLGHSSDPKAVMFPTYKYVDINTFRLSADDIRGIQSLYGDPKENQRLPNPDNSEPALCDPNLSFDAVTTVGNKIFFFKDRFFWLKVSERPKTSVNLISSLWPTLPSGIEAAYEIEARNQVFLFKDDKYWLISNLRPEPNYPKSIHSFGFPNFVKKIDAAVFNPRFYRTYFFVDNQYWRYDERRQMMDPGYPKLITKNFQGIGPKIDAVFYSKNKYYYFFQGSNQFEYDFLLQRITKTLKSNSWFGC
TACE, sequence (P78536 215-824): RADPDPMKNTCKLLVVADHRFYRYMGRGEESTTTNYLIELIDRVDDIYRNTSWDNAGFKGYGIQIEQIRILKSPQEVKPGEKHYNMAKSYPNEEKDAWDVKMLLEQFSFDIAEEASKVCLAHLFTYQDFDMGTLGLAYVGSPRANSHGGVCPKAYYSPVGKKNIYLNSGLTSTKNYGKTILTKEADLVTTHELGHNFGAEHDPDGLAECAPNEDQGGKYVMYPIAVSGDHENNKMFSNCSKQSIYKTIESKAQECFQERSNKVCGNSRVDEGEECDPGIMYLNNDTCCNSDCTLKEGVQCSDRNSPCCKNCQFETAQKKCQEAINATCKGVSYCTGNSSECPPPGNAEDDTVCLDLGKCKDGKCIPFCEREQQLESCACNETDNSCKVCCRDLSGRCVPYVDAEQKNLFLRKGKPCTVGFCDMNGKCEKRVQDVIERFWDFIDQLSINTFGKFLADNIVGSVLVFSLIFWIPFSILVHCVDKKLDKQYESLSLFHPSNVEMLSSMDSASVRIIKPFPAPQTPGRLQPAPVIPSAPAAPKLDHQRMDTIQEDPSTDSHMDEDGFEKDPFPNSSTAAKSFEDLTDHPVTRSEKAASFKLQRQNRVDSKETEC
MMP-8, sequence (P22894 101-467): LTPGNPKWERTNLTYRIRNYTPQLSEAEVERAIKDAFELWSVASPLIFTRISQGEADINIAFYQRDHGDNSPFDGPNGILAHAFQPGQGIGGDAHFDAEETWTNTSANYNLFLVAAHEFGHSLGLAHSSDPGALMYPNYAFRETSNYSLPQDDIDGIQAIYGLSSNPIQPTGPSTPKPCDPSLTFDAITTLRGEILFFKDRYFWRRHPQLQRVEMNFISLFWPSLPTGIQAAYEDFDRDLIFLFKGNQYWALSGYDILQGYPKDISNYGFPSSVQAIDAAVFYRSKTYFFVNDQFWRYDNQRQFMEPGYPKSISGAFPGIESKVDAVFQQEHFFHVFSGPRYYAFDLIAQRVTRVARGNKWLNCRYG

SMILES	IC50 (MMP-9 [3]; read-out: IC50 MMP-9) [nM]	IC50 (MMP-1 [4]; read-out: IC50 MMP-1) [nM]	IC50 (MMP-2 [5]; read-out: IC50 MMP-2) [nM]	IC50 (MMP-3; read-out: IC50 MMP-3) [nM]	IC50 (MMP-12; [10]) [nM]	IC50 (MMP-12; [11]) [nM]	IC50 (MMP-13 [2]; [12]) [nM]	also measured
COc1ccc(NC(=O)Nc2ccc3nc(C)cc(N)c3c2)cc1 [Entry 3]								IC50 Ratio (±) [1]: 0.56
O=C(OCc1ccccc1)c1ccc2[nH]c(=O)n(Cc3ccccc3)c(=O)c2c1 [Example 4, 3-Benzyl-2,4-dioxo-1,2,3,4-tetrahydro-quinazoline-6-carboxylic acid benzyl ester]								IC50 (MMP-7): > 30000 nM; IC50 (MMP-13 [2]; TPL assay, unit inferred, read-out: Activities measured by TPL assays, MMP-13): 29.5 nM; IC50 (MMP-9 [3]; unit inferred, read-out: Activities measured by TPL assays, MMP-9): > 100000 nM; IC50 (MMP-1 [4]; unit inferred, read-out: Activities measured by TPL assays, MMP-1): > 30000 nM; IC50 (MMP-2 [5]; unit inferred, read-out: Activities measured by TPL assays, MMP-2): > 100000 nM; IC50 (MMP-3; unit inferred, read-out: Activities measured by TPL assays, MMP-3): > 30000 nM; IC50 (MMP-14; unit inferred, read-out: Activities measured by TPL assays, MMP-14): > 100000 nM
O=C(NCCCCN1CCOCC1)c1cc2ccccc2o1 [CL-82198]								Activity against TACE (TACE): complete lack of activity; Activity against MMP-9 (MMP-9 [6]): complete lack of activity; Inhibition of MMP-13 (MMP-13 [7]): weak inhibition; Activity against MMP-1 (MMP-1 [8]): complete lack of activity
Cc1cc(O)nc(SCc2ccc(Cl)cc2)n1 [Entry 4]								IC50 Ratio (±) [1]: 0.07^a
CC1(C)NC(=O)N(C[C@@H](COc2ccc(-c3ccc(OC(F)(F)F)cc3)cc2)N(O)C=O)C1=O								Selectivity for MMP-2 versus MMP-1 (MMP-2 [9]): highly selective
COc1ccc(CC#Cc2ccc3ncn(Cc4ccc(C(=O)O)cc4)c(=O)c3c2)cc1 [Example 1, 4-{6-[3-(4-Methoxy-phenyl)-prop-1-ynyl]-4-oxo-4H-quinazolin-3-ylmethyl}-benzoic acid]	> 30000	> 100000	> 100000	220	> 30000			IC50 (MMP-14; read-out: IC50 MMP-14): > 100000 nM

The next lines start with results.

IC50 (MMP-9 [3]; read-out: IC50 MMP-9) [nM]	IC50 (MMP-1 [4]; read-out: IC50 MMP-1) [nM]	IC50 (MMP-2 [5]; read-out: IC50 MMP-2) [nM]	IC50 (MMP-3; read-out: IC50 MMP-3) [nM]	IC50 (MMP-12; [10]) [nM]	IC50 (MMP-12; [11]) [nM]	IC50 (MMP-13 [2]; [12]) [nM]	SMILES	also measured
> 1400	> 101000	> 390	> 1700	14	4		O=C(O)C[C@@H](NC(=O)c1cc(-c2ccc(-c3ccncc3)cc2)cs1)c1ccccc1 [Example 6, (2?)-3-({[4-1(pyridin-4-yl)phényl]-thièn-2-yl]carboxamido)(phényl)propanoic acid hydrochloride]	IC50 (MMP-13 [2]): 270 nM; IC50 (MMP-8): > 980 nM
> 100000	> 100000	> 100000	160	3400		1.2	COc1cccc(COC(=O)c2cc3c(=O)n(Cc4ccc(-c5nn[nH]n5)cc4)c(=O)[nH]c3s2)c1 [Example 3, 2,4-Dioxo-3-[4-(2H-tetrazol-5-yl)-benzyl]-1,2,3,4-tetrahydro-thieno[2,3-d]pyrimidine-6-carboxylic acid 3-methoxy-benzyl ester]	IC50 (MMP-14; read-out: IC50 MMP-14): > 100000 nM
				570	15	1900	O=C(NC[C@H]1CC[C@H](C(=O)O)CC1)c1cc(-c2ccc(-c3ccncc3)cc2)ns1 [Example 8, Trans 3-[4-(4-pyridyl)phenyl]-5-isothiazole carboxamido methyl-cyclohexane carboxylic acid, Potassium Salt]	
				17000	270	3600	CN1c2ccc(C3CN(Cc4ccccc4)C(=O)CO3)cc2CS1(=O)=O (centres unmarked) [Example 7, 4-Benzyl-6-(1-methyl-2,2-dioxo-2,3-dihydro-1H-2λ^6-benzo[c]isothiazol-5-yl)morpholin-3-one]	
